These results are taken from PMC7246325 (Drug Design, Development and Therapy, 2020).

Each structure is given as a SMILES string. Read-outs that look alike come from different tables or passages of the source.

Data set [1] has as its target CYP2C9 (Homo sapiens, UniProt P11712). The data set can be described thus: In vitro CYP2C9 inhibition. The format is biochemical.
The target of data set [2] is T1, CYP3A4 (Homo sapiens, UniProt P08684). The data set can be described thus: In vitro CYP3A4 inhibition. In kind it is biochemical.
T1 sequence (P08684 whole entry): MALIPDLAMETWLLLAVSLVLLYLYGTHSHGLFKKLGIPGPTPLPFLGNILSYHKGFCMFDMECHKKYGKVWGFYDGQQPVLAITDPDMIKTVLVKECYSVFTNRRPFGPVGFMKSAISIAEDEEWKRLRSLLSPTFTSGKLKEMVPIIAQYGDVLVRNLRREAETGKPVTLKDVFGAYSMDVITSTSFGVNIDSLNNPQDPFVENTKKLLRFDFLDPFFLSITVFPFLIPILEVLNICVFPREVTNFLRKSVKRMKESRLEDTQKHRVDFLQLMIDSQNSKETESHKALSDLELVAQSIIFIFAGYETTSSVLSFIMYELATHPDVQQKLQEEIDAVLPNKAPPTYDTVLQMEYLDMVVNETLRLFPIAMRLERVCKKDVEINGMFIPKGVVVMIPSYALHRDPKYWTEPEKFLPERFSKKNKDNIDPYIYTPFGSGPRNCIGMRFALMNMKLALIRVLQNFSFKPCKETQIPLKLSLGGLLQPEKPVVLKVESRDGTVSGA
The target of data set [3] is T1, CYP3A4. Put plainly: In vitro CYP3A4 inhibition. In kind it is biochemical. The source holds these as a separate data set.
The next data set is described as follows: Safety assessment. In kind it is in vivo, patients with advanced solid tumors. Particulars: 23 patients.
The target in data set [4] is T1, CYP3A4. The data set can be described thus: Predicted AUC ratios for CYP3A4 substrates. Particulars: dose (750 mg)/250 mL.
The conditions of data set [5]: cancer patients; cited from earlier work.
Data set [6] has as its system CYP3A4. Particulars: among human CYP450 isoenzymes; cited from earlier work.
The test system of data set [7] is CYP2C9. To be noted: among human CYP450 isoenzymes; cited from earlier work.
[8] abbreviates: warfarin 3 mg, apatinib 750 mg daily, vs single administration.
Setting [9] is: any grade, 750 mg apatinib daily.

The term IC50 denotes the concentration needed to halve the response being measured. As usually defined, the Ki is the dissociation constant of the complex between target and ligand, obtained from inhibition or displacement. Low values mean tighter binding, high ones weaker binding.

Chain of CYP2C9 (Homo sapiens, UniProt P11712) (P11712 whole entry): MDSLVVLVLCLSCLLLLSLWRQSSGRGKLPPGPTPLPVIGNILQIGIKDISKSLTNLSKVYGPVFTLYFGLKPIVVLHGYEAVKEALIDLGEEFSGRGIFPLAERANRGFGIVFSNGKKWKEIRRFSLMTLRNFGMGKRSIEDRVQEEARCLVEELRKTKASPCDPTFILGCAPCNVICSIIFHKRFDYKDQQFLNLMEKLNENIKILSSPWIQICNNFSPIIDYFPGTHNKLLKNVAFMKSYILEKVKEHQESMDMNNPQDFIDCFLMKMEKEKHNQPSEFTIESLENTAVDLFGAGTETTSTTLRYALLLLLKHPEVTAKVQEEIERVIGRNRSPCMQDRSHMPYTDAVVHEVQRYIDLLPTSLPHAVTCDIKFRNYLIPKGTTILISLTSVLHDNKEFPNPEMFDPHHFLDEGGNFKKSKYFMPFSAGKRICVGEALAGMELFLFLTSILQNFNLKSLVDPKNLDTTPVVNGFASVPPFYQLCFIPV

Regarding `CC(=O)C[C@@H](c1ccccc1)c1c(O)c2ccccc2oc1=O` [S-Warfarin, S-warfarin], the “AUC0-∞” value by setting is: (3 mg warfarin oral + 750 mg apatinib daily, N=20, GMean (CV%)) 12600 (35.0) h×ng/mL; (3 mg warfarin oral, alone, N=23, GMean (CV%)) 5190 (26.8) h×ng/mL. Further, the Tmax by setting is: (3 mg warfarin oral + 750 mg apatinib daily, N=20, median (range)) 1.00 (0.500–3.00) h; (3 mg warfarin oral, alone, N=23, median (range)) 0.500 (0.500–3.00) h. Also, the “Difference of Tmax before and after coadministration of apatinib” value (S-warfarin, Wilcoxon signed-rank test) is “no significant difference”. Moreover, under setting [8], the “Increase of AUC0–t (exposure) on coadministration with apatinib” value is given as 92%. The “Increase of Cmax on coadministration with apatinib” value under setting [8] amounted to 24%.

On CYP2C9 [1], `N#CC1(c2ccc(NC(=O)c3cccnc3NCc3ccncc3)cc2)CCCC1` [apatinib] gave an IC50 of 440 nM and an inhibition constant Ki of 310 nM. On CYP3A4 [2], this molecule displayed an IC50 of 1800 nM and a Ki of 710 nM. On CYP3A4 [3], the IC50 is 830 nM and the Ki was determined as 270 nM. In addition, in the data set “Safety assessment” (setting [9]), the “Incidence of bilirubin increased (adverse event related to apatinib)” value worked out at 21.7%, the “Incidence of fatigue (adverse event related to apatinib)” value came out at 21.7%, the “Incidence of hand-foot syndrome (adverse event related to apatinib)” value is reported as 17.4% and the “Incidence of headache (adverse event related to apatinib)” value was 47.8%. Besides, in “Safety assessment” (setting [9]), the “Incidence of hypertension (adverse event related to apatinib)” value turned out to be 73.9%, the “Incidence of leukopenia (adverse event related to apatinib)” value is 21.7%, the “Incidence of proteinuria (adverse event related to apatinib)” value is given as 26.1% and the “Incidence of thrombocytopenia (adverse event related to apatinib)” value is listed as 30.4%. For the same molecule, the “Incidence of grade 3/4 drug-related hypertension” value in “Safety assessment” (grade 3/4, 750 mg apatinib daily) was determined as 17.4%. Also, the Igut on CYP3A4 [4] was 6078 µM. Besides, the t1/2 in [5] is 8.01 to 10.2 h. In the data set with CYP3A4 [6], the “Contribution of CYP3A4 to the in vitro (oxidative) metabolism” value is 62.6%. Further, the “Contribution of CYP2C9 to the oxidative metabolism” value in the data set with CYP2C9 [7] is given as 13.1%.
